Results published in ChEMBL document CHEMBL1151930, “Physicochemical determinants of human renal clearance” (J Med Chem, 2009).

Experiments:
Homo sapiens [1] = organism: Homo sapiens; settings: in vivo
clinical = settings: human, in vivo
[2] = (§1) Total body clearance in human; settings: in vivo
Homo sapiens [3] = organism: Homo sapiens; experiment: as §1; settings: in vivo

Row | SMILES | CL_renal (Homo sapiens [1]) [mL/min/kg] | CL renal (clinical) [mL/min/kg] | clearance [2] [mL/min/kg] | CL (Homo sapiens [3]) [mL/min/kg]
1 | CCc1cccc2cc(C(O)CNC(C)(C)C)oc12 (stereo not given) [BUFURALOL] | 0 | – | – | –
2 | Cc1ncc2n1-c1ccc(Cl)cc1C(c1ccccc1F)=NC2 [MIDAZOLAM] | 0 | – | – | –
3 | CC[C@H]1OC(=O)[C@H](C)[C@@H](O[C@H]2C[C@@](C)(OC)[C@@H](O)[C@H](C)O2)[C@H](C)[C@@H](O[C@@H]2O[C@H](C)C[C@H](N(C)C)[C@H]2O)[C@](C)(O)C[C@@H](C)CN(C)[C@H](C)[C@@H](O)[C@]1(C)O [AZITHROMYCIN] | – | 0.45 | 10 | –
4 | CC1=NS(=O)(=O)c2cc(Cl)ccc2N1 [DIAZOXIDE] | – | 0.06 | 0.06 | –
5 | COCc1c(C(C)C)nc(C(C)C)c(/C=C/[C@@H](O)C[C@@H](O)CC(=O)O)c1-c1ccc(F)cc1 [CERIVASTATIN] | 0 | – | – | –
6 | O=C(NCCN1CCOCC1)c1ccc(Cl)cc1 [MOCLOBEMIDE] | – | 0.05 | 10 | –
7 | Nc1nc(=O)[nH]cc1F [FLUCYTOSINE] | – | 1.98 | 2 | –
8 | CC[C@@]1(O)C(=O)OCc2c1cc1n(c2=O)Cc2c-1nc1ccccc1c2N | – | 0.56 | 6.5 | –
9 | O=C1Nc2ccc(Cl)cc2C(c2ccccc2Cl)=NC1O (stereo not given) [LORAZEPAM] | – | 0.01 | 1 | –
10 | CN1CCCC(n2nc(Cc3ccc(Cl)cc3)c3ccccc3c2=O)CC1 (stereo not given) [AZELASTINE] | – | 0.18 | 9 | –
11 | CCC1=C[C@@H]2CN(C1)Cc1c([nH]c3ccccc13)[C@@](C(=O)OC)(c1cc3c(cc1OC)N(C)[C@H]1[C@@](O)(C(=O)OC)[C@H](OC(C)=O)[C@]4(CC)C=CCN5CC[C@]31[C@@H]54)C2 [VINORELBINE] | – | 2.2 | 20 | –
12 | N=C(N)NC(=O)Cc1c(Cl)cccc1Cl [GUANFACINE] | – | 3 | 5.9 | –
13 | Cc1ccnc2c1NC(=O)c1cccnc1N2C1CC1 [NEVIRAPINE] | – | 0.01 | 0.3 | –
14 | N[C@@H](CC(=O)N1CCn2c(nnc2C(F)(F)F)C1)Cc1cc(F)c(F)cc1F [SITAGLIPTIN] | – | 4.74 | 6 | –
15 | CN1C(C(=O)Nc2ccccn2)=C(O)c2sccc2S1(=O)=O [TENOXICAM] | 0 | – | 0.03 | –
16 | Nc1nc2c(c(=O)[nH]1)N(C=O)C(CNc1ccc(C(=O)N[C@@H](CCC(=O)O)C(=O)O)cc1)CN2 (stereo not given in full) [LEUCOVORIN] | – | 0.8 | 5.3 | –
17 | O=C(NCCNCC(O)COc1ccc(O)cc1)N1CCOCC1 (stereo not given) [XAMOTEROL] | – | 1.86 | 3 | –
18 | CCN(CC)CCNC(=O)c1ccc(NC(C)=O)cc1 [ACECAINIDE] | – | 3.2 | 4 | –
19 | CNCCC=C1c2ccccc2CCc2ccccc21 [NORTRIPTYLINE] | – | 0.2 | 10 | –
20 | N[C@@H](Cc1ccc(N(CCCl)CCCl)cc1)C(=O)O | – | 0.91 | 7 | –
21 | CCCCS(=O)(=O)N[C@@H](Cc1ccc(OCCCCC2CCNCC2)cc1)C(=O)O [TIROFIBAN] | – | 1.59 | – | 4.3
22 | CN[C@@H]1[C@@H](O)[C@@H](O[C@@H]2[C@@H](O)[C@H](O[C@H]3OC(CN)=CC[C@H]3N)[C@@H](N)C[C@H]2N)OC[C@]1(C)O [SISOMICIN] | – | 0.76 | 1 | –
23 | CC1(C)S[C@@H]2[C@H](NC(=O)[C@H](C(=O)O)c3ccsc3)C(=O)N2[C@H]1C(=O)O [TICARCILLIN] | – | 1.9 | 2.2 | –
24 | CCCCC/C=C\CCC(=O)N[C@H]1[C@H](Oc2c3cc4cc2Oc2ccc(cc2Cl)[C@@H](O[C@@H]2O[C@H](CO)[C@@H](O)[C@H](O)[C@H]2NC(C)=O)[C@@H]2NC(=O)[C@H](NC(=O)[C@@H]4NC(=O)[C@H]4NC(=O)[C@@H](Cc5ccc(c(Cl)c5)O3)NC(=O)[C@H](N)c3ccc(O)c(c3)Oc3cc(O)cc4c3)c3ccc(O)c(c3)-c3c(O[C@H]4O[C@H](CO)[C@@H](O)[C@H](O)[C@@H]4O)cc(O)cc3[C@@H](C(=O)O)NC2=O)O[C@H](CO)[C@@H](O)[C@@H]1O [TEICOPLANIN A2-1] | – | 0.17 | 0.17 | –
